Laboratory results taken from patent US11999957B2, “Method for enhancing vanillin resistance of Saccharomyces cerevisiae by knocking out SNG1 gene” (QILU UNIVERSITY OF TECHNOLOGY, priority 2020, dated 2024).

Legend:
sng1Δ mutant [1] = experiment: Shake-flask fermentation under vanillin stress (OD600 growth); type: cell-based, Saccharomyces cerevisiae
Experimental: (§1) A single colony of the sng1Δ mutant was picked, transferred to 1-2 mL of a SC medium and cultured at 30° C. and 200 rpm for about 24 h. The cell suspension was transferred to 20 mL of fresh medium at an initial OD600 of 0.2 and cultured at 30° C. and 200 rpm overnight to the mid log phase for secondary activation. Then the cell culture, at an initial OD600 of 0.2, was transferred to 40 mL of a SC medium containing 6 mmol/L of vanillin and cultured at 30° C. and 200 rpm under shaking, where the OD600 was regularly measured.
(§2) The maximum specific growth rate was obtained by calculating a […] regression slope of ln(OD600) versus time in the logarithmic growth phase.

wild-type BY4741 strain = experiment: as above; type: cell-based, Saccharomyces cerevisiae; details: wild-type BY4741, SC medium containing 6 mmol/L of vanillin, 30° C., 200 rpm
Experimental: as §1, §2
Similarly, the specific consumption rate of vanillin in the wild-type BY4741 strain was calculated to be 0.035 g g^−1 h^−1 according to the above method (FIG. 4).

sng1Δ mutant [2] = experiment: Growth on YEPD plate containing vanillin (spot dilution test); type: cell-based, Saccharomyces cerevisiae; details: YEPD plate with 6 mmol/L of vanillin, 30° C., 1-3 days, sng1Δ mutant vs control strain
Experimental: The sng1Δ mutant obtained above was cultured on a YEPD plate containing 6 mmol/L of vanillin to observe its growth status. Specifically, the sng1Δ mutant was inoculated to 1-2 mL of a liquid YEPD medium and cultured at 30° C. overnight to logarithmic growth phase. Then the mutant cells were transferred to 5 mL of fresh medium at an initial OD600 of 0.2, cultured overnight and centrifuged. The cells were collected, washed with 1 mL of sterile water three times and centrifuged at 8,000 r/min. The cells were again suspended with sterile water and placed at 30° C. for 9 h to prepare resting cells, and during the preparation, the medium was prepared, poured to a plate and naturally dried. The cell suspension was adjusted to OD600 of 1.0 and subjected to 10-fold serial dilution, and 4 μL of the suspension at each dilution was dropped on the plate, cultured at 30° C. for 1-3 days and photographed to observe the colony growth. The control strain was tested in the same way for the vanillin resistance.

Saccharomyces cerevisiae = details: 0.9 g/L vanillin; extended from 2 hours without vanillin; cited from earlier work

COc1cc(C=O)ccc1O [vanillin]
maximum specific growth rate (sng1Δ mutant [1]; sng1Δ mutant, SC medium containing 6 mmol/L of vanillin, aerobic, shaking, 30° C., 200 rpm): 0.225 h⁻¹
improvement of maximum specific growth rate of sng1Δ mutant compared to the control strain (sng1Δ mutant [1]; under vanillin stress (6 mmol/L), sng1Δ mutant vs BY4741): 70%
maximum specific growth rate (wild-type BY4741 strain): 0.132 h⁻¹
growth status on plate under vanillin stress (sng1Δ mutant [2]): superior growth status to the control strain
delay period (lag) of growth (Saccharomyces cerevisiae): about 24 hours
